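The compound was tested at five concentrations on cells cultured in 96-well plates, with a 48-hour exposure period. GI50: concentration for 50% inhibition of growth.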 Active and inactive are the calls of the source. Rule as the data show it: active = GI50 up to about 1.1 µM and inactive = higher.
Experiments:
Experiment in all cases: NCI tumour cell line growth inhibition, 48 h
DU-145 = system: DU-145
RXF 393 = system: RXF 393
SK-OV-3 = system: SK-OV-3
BT-549 = system: BT-549
ACHN = system: ACHN
M14 = system: M14
MDA-N = system: MDA-N
OVCAR-8 = system: OVCAR-8
NCI-H522 = system: NCI-H522
TK-10 = system: TK-10
MDA-MB-231 = system: MDA-MB-231
OVCAR-4 = system: OVCAR-4
CCRF-CEM = system: CCRF-CEM
HCT-116 = system: HCT-116
Hs-578T = system: Hs-578T
SR = system: SR
NCI-H460 = system: NCI-H460
OVCAR-3 = system: OVCAR-3
HCC 2998 = system: HCC 2998

| SMILES | GI50 (DU-145) | GI50 (RXF 393) | GI50 (SK-OV-3) | GI50 (BT-549) | GI50 (ACHN) | GI50 (M14) | GI50 (MDA-N) | GI50 (OVCAR-8) | GI50 (NCI-H522) | GI50 (TK-10) | GI50 (MDA-MB-231) | GI50 (OVCAR-4) | GI50 (CCRF-CEM) | GI50 (HCT-116) | GI50 (Hs-578T) | GI50 (SR) | GI50 (NCI-H460) | GI50 (OVCAR-3) | GI50 (HCC 2998) |
| --- | --- | --- | --- | --- | --- | --- | --- | --- | --- | --- | --- | --- | --- | --- | --- | --- | --- | --- | --- |
| CNc1cc(Cl)ccc1C(=O)N1CCC[C@H]1CO | > 100 µM (inactive) | > 100 µM (inactive) | > 100 µM (inactive) | > 100 µM (inactive) | > 100 µM (inactive) | > 100 µM (inactive) | 97.1 µM (inactive) | > 100 µM (inactive) | > 100 µM (inactive) | > 100 µM (inactive) | > 100 µM (inactive) | 29.2 µM (inactive) | > 100 µM (inactive) | > 100 µM (inactive) | > 100 µM (inactive) |  |  |  |  |
| NC(=O)c1nc[nH]c1/N=N/SCC(N)C(=O)O (stereo not drawn) | 5.11 µM (inactive) | > 100 µM (inactive) | 2.88 µM (inactive) | > 90.8 µM (inactive) | 13 µM (inactive) | 2.81 µM (inactive) |  | 5.74 µM (inactive) | > 68.7 µM (inactive) | 5.32 µM (inactive) | 6.04 µM (inactive) | 11.3 µM (inactive) | 2 µM (inactive) | 6.9 µM (inactive) | > 56.9 µM (inactive) | 0.773 µM (active) | 12.7 µM (inactive) | 19.1 µM (inactive) | 4.06 µM (inactive) |
| C=CC(=O)NCCC(=O)OCn1cc(F)c(=O)[nH]c1=O | 3.64 µM (inactive) | 10.1 µM (inactive) | 16.3 µM (inactive) | > 100 µM (inactive) | 5.02 µM (inactive) | 9.89 µM (inactive) | 1.56 µM (inactive) | 11.5 µM (inactive) | 9.4 µM (inactive) | 0.838 µM (active) |  | 0.759 µM (active) | 16.7 µM (inactive) | 3.24 µM (inactive) | > 100 µM (inactive) | 2.12 µM (inactive) | 0.434 µM (active) | 10.5 µM (inactive) | 0.369 µM (active) |
| COc1ccc(CCNC(=O)CCc2ccccc2CO)cc1OC | > 100 µM (inactive) | > 100 µM (inactive) | > 100 µM (inactive) | > 100 µM (inactive) | > 100 µM (inactive) | > 100 µM (inactive) |  | > 100 µM (inactive) | > 100 µM (inactive) | > 100 µM (inactive) | > 100 µM (inactive) | > 100 µM (inactive) | > 100 µM (inactive) | > 100 µM (inactive) | > 100 µM (inactive) | > 100 µM (inactive) | > 100 µM (inactive) | > 100 µM (inactive) | > 100 µM (inactive) |
| Cc1cc(NS(=O)(=O)c2ccc(/N=[N+](\[O-])c3ccc(S(=O)(=O)Nc4cc(C)on4)cc3)cc2)no1 | > 100 µM (inactive) | > 100 µM (inactive) | > 100 µM (inactive) | > 100 µM (inactive) | > 100 µM (inactive) | > 100 µM (inactive) |  | > 100 µM (inactive) | > 100 µM (inactive) | > 100 µM (inactive) | > 100 µM (inactive) | > 100 µM (inactive) | > 100 µM (inactive) | > 100 µM (inactive) | > 100 µM (inactive) | > 100 µM (inactive) |  | > 100 µM (inactive) |  |
| CCN(CC)Cc1ccc(C(=S)Nc2ccc(Cl)cc2)s1 | 15 µM (inactive) |  | 15.2 µM (inactive) | 5.18 µM (inactive) | 14.2 µM (inactive) | 3.64 µM (inactive) | 10.7 µM (inactive) | 3.75 µM (inactive) | 11.4 µM (inactive) |  |  | 10 µM (inactive) | 11.9 µM (inactive) | 10.5 µM (inactive) | 10.4 µM (inactive) | 3.64 µM (inactive) | 11.9 µM (inactive) | 15.3 µM (inactive) | 12.6 µM (inactive) |
| S=C(N/N=C/c1ccccn1)N1CC2CCC(CC2)C1 | 0.0471 µM (active) | 0.0703 µM (active) | < 0.01 µM (active) | < 0.01 µM (active) | < 0.01 µM (active) | < 0.01 µM (active) | 0.0188 µM (active) | < 0.01 µM (active) | < 0.01 µM (active) | < 0.01 µM (active) | < 0.01 µM (active) | 0.0308 µM (active) | < 0.01 µM (active) | < 0.01 µM (active) | 0.299 µM (active) |  | < 0.01 µM (active) | < 0.01 µM (active) | 0.0895 µM (active) |
| COC(=O)C(/C(=N/N)C(=O)Nc1cccc(O)c1)c1nc2ccccc2nc1O (stereo not drawn) |  | > 100 µM (inactive) | > 100 µM (inactive) | > 100 µM (inactive) | > 100 µM (inactive) | > 100 µM (inactive) | > 100 µM (inactive) | > 100 µM (inactive) | > 100 µM (inactive) | > 100 µM (inactive) | > 100 µM (inactive) | > 100 µM (inactive) | > 10 µM (inactive) | > 100 µM (inactive) | > 100 µM (inactive) | > 100 µM (inactive) | > 100 µM (inactive) | > 100 µM (inactive) | > 100 µM (inactive) |
| COc1cc(/N=C(\N)N=C(N)N)c2ncccc2c1 | > 100 µM (inactive) | > 100 µM (inactive) | > 100 µM (inactive) | 78.5 µM (inactive) | > 100 µM (inactive) | > 100 µM (inactive) | > 100 µM (inactive) | > 100 µM (inactive) | 72.8 µM (inactive) | > 100 µM (inactive) | > 100 µM (inactive) | > 100 µM (inactive) |  | > 100 µM (inactive) | 98.4 µM (inactive) |  | > 100 µM (inactive) | > 100 µM (inactive) | > 100 µM (inactive) |
| c1ccc(/N=C2\C(=N/c3ccccc3)N(C3CCCCC3)/C(=N\C3CCCCC3)N2c2ccccc2)cc1 |  | > 100 µM (inactive) |  | > 100 µM (inactive) | > 100 µM (inactive) | > 100 µM (inactive) | > 100 µM (inactive) | > 100 µM (inactive) |  | > 100 µM (inactive) | > 100 µM (inactive) |  |  | > 100 µM (inactive) | > 100 µM (inactive) | > 100 µM (inactive) | > 100 µM (inactive) |  | > 100 µM (inactive) |
| N#CC(C#N)=C1/C(=C/C=C/C=C/C=C/c2ccc(N3CCCCC3)s2)S(=O)(=O)c2ccccc21 | 55 µM (inactive) | > 100 µM (inactive) | > 100 µM (inactive) | > 100 µM (inactive) | > 100 µM (inactive) | > 100 µM (inactive) |  | 67.3 µM (inactive) | 22.1 µM (inactive) | 81.3 µM (inactive) | > 100 µM (inactive) | > 100 µM (inactive) | 71.6 µM (inactive) | > 100 µM (inactive) |  | 50.5 µM (inactive) | > 100 µM (inactive) | > 100 µM (inactive) | > 100 µM (inactive) |
| NNC1=N/C(=C\c2ccccc2O)C(=O)N1 | 34.9 µM (inactive) | 49.3 µM (inactive) | 31.7 µM (inactive) | 37.9 µM (inactive) | 30.9 µM (inactive) | 27.2 µM (inactive) | 42.2 µM (inactive) | 27.6 µM (inactive) | 35.3 µM (inactive) | 60.1 µM (inactive) | 35.4 µM (inactive) |  | 9.12 µM (inactive) | 34.4 µM (inactive) | > 100 µM (inactive) |  | 20.2 µM (inactive) | 35.1 µM (inactive) |  |
| CC1=[N+]([O-])C(C)(C)N(N=O)C1(C)C | > 10 µM (inactive) | > 10 µM (inactive) |  | > 10 µM (inactive) | > 10 µM (inactive) | > 10 µM (inactive) | > 10 µM (inactive) | > 10 µM (inactive) | > 10 µM (inactive) | > 10 µM (inactive) | > 10 µM (inactive) | > 10 µM (inactive) | > 10 µM (inactive) | > 10 µM (inactive) |  |  | > 10 µM (inactive) | > 10 µM (inactive) | > 10 µM (inactive) |
| CC1(C)OC2OC(COC(=O)C=[N+]=[N-])C3OC(C)(C)OC3C2O1 (stereo not drawn) | > 100 µM (inactive) | > 100 µM (inactive) | > 100 µM (inactive) | > 100 µM (inactive) | > 100 µM (inactive) |  | > 100 µM (inactive) |  | > 100 µM (inactive) | > 100 µM (inactive) | > 100 µM (inactive) | > 100 µM (inactive) | > 100 µM (inactive) | > 100 µM (inactive) |  | > 100 µM (inactive) | > 100 µM (inactive) | > 100 µM (inactive) | > 100 µM (inactive) |
| O=Nc1c(-c2c(O)[nH]c3ccc(I)cc23)[nH]c2ccccc12 | 3.35 µM (inactive) | 2.36 µM (inactive) | 2.42 µM (inactive) | 18 µM (inactive) | 2.53 µM (inactive) | > 21.6 µM (inactive) | 4.97 µM (inactive) | 4.95 µM (inactive) | 2.82 µM (inactive) | 5.38 µM (inactive) | 3.79 µM (inactive) | 3.41 µM (inactive) | 2.08 µM (inactive) | 3.01 µM (inactive) |  |  | 3.7 µM (inactive) | 5.35 µM (inactive) | 2.31 µM (inactive) |
| CCc1nc(N)nc(N)c1-c1ccc(Cl)c([N+]#N)c1 | 80.2 µM (inactive) | > 100 µM (inactive) | > 100 µM (inactive) | > 100 µM (inactive) | 39.4 µM (inactive) | 65.5 µM (inactive) |  | 66.8 µM (inactive) | 38.7 µM (inactive) | > 100 µM (inactive) | > 100 µM (inactive) | > 100 µM (inactive) |  | 41.8 µM (inactive) | 46.6 µM (inactive) | 22.9 µM (inactive) | 37.8 µM (inactive) | 44.5 µM (inactive) |  |
| CSc1ccc2c(cc1=O)[C@@H](NC(C)=O)CCc1cc(O)c(O)c(O)c1-2 | > 100 µM (inactive) | 72.4 µM (inactive) | > 100 µM (inactive) | 29.6 µM (inactive) | 22.3 µM (inactive) | 18.7 µM (inactive) | 11.3 µM (inactive) | 19.1 µM (inactive) | 16.2 µM (inactive) | 18.8 µM (inactive) | 23.9 µM (inactive) | 17.6 µM (inactive) | 4.98 µM (inactive) | 30.6 µM (inactive) |  | 7.8 µM (inactive) | 16.4 µM (inactive) | 18.6 µM (inactive) | 23 µM (inactive) |

Reference: ChEMBL document CHEMBL1201862, “PubChem BioAssay data set” (2004)
